Test results as given in article PMC12951568, “Identifying Structural Factors Governing the Photodynamic Activity of Phthalocyanines” (Journal of Medicinal Chemistry, 2026).
“And” between values parts separate entries of the source, which are not always exact repeats. Equal entries are not always repeated. Where two headings read alike, the source gives them in different places.

Tests used:
[1] = Fluorescence lifetime in DMF; type: physicochemical
Description: 1 Photophysical Data of Investigated Derivatives in DMF ^a | column: τF1/ns; τF2/ns

[2] = Fluorescence quantum yield, comparative method; type: physicochemical; conditions: in DMF; ZnPc as reference
In short: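 ΦF determined by the comparative method against ZnPc (ΦF 0.32 in THF), using integrated emission area, absorbance at the excitation wavelength and solvent refractive index. Q-band absorbance kept below 0.05; estimated error ± 15%.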

[3] = Aggregation / monomerization in aqueous media (spectra in water and PBS); type: physicochemical; conditions: 1 μM
Protocol: (§1) An absorption spectrum of 2.475 mL of solvent (water, DMF, or PBS) was taken (i.e., absorption spectrum of baseline); then, 25 μL of stock solution was added to reach the final concentration of 1 μM in the cuvette, and the absorption and emission spectra were taken. Baseline of the solvent was subtracted from the obtained absorption spectrum to get the final absorption spectrum of the sample.

[4] = Quantum yield of singlet oxygen production, comparative method with DPBF scavenger; type: physicochemical; conditions: in DMF, ZnPc as reference
In short: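 Dye added from 100 μM DMF stock (or DMF/water, water); irradiated under stirring with xenon lamp through water filter and OG530 cut-off (>523 nm). DPBF decay followed at 415 nm; ΦΔ from ln(A0/At) slopes versus reference, normalised to absorbed light summed over 523–850 nm; triplicate means, ±10% error.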

[5] = test system: HeLa (human cervical carcinoma); conditions: ref number not given, cited from earlier work
[6] = target: bovine serum albumin (BSA) (Bos taurus, UniProt P02769); experiment: Interaction with bovine serum albumin (absorption and emission spectra in PBS); type: binding; conditions: 1 μM Pc in PBS, BSA 17.5, 35 and 100 μM
Chain of bovine serum albumin (BSA) (P02769 25-607): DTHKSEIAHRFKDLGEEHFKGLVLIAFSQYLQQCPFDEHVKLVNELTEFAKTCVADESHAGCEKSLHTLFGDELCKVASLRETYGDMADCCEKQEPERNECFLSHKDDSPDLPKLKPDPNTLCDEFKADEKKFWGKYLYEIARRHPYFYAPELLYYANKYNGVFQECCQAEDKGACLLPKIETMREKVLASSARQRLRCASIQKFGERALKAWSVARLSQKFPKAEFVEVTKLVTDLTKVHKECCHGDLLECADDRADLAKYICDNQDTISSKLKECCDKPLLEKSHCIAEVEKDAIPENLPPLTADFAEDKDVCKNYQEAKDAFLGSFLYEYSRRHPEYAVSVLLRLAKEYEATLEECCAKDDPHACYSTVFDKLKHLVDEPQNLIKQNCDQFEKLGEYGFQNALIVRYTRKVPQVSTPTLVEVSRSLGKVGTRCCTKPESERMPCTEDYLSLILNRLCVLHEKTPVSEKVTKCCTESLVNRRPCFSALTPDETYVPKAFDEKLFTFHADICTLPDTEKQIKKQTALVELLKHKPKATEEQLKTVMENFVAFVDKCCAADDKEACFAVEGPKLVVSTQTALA

[7] = test system: SK-MEL-28 (human skin melanoma); experiment: Photodynamic activity (phototoxicity, neutral red uptake) on SK-MEL-28; type: cell-based; conditions: 12 h incubation, Xe-lamp 15 min, λ > 570 nm, 11.2 J/cm^2; mean ± SD; t.w. = this work
[8] = Absorption and fluorescence emission spectra in DMF; type: physicochemical; conditions: in DMF
Protocol: as §1

[9] = test system: HeLa (human cervical carcinoma); experiment: Photodynamic activity (phototoxicity, neutral red uptake) on HeLa; type: cell-based; conditions: HeLa; unsymmetrical anionic A1Zn, A2Zn vs A3Zn, A4Zn
[10] = Log P, partition between n-octanol and PBS; type: physicochemical; conditions: partition coefficient between 1-octanol and PBS
In short: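 Sample from 100 μM stock added to equal volumes of n-octanol and PBS, vortexed 5 min at rt, centrifuged. Each layer diluted into DMF and emission spectra recorded; log P taken as log of octanol/PBS integrated fluorescence ratio, mean of triplicates.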

[11] = test system: MCF-7 (human breast adenocarcinoma); set-up: method as in number not printed in Table 2; conditions: 12 h incubation, Xe-lamp 15 min, λ > 570 nm, 11.2 J/cm^2; mean ± SD; determined previously under the same conditions at the same workplace and published; ref number not given; cited from earlier work
[12] = cited from earlier work; for ΦF, fluorescence quantum yield of nonionized analogue: determined for nonionized analogues containing free carboxylic acid, ref number not given (footnote b)
[13] = cited from earlier work; for ΦΔ, quantum yield of singlet oxygen production of nonionized analogue: determined for nonionized analogues containing free carboxylic acid, ref number not given (footnote b)
[14] = test system: MCF-7 (human breast adenocarcinoma); experiment: Photodynamic activity (phototoxicity, neutral red uptake) on MCF-7; type: cell-based; conditions: 12 h incubation, Xe-lamp 15 min, λ > 570 nm, 11.2 J/cm^2; mean ± SD; t.w. = this work
[15] = test system: SK-MEL-28 (human skin melanoma); set-up: method as in number not printed in Table 2; conditions: 12 h incubation, Xe-lamp 15 min, λ > 570 nm, 11.2 J/cm^2; mean ± SD; determined previously under the same conditions at the same workplace and published; ref number not given; cited from earlier work
[16] = 12 h incubation, Xe-lamp 15 min, λ > 570 nm, 11.2 J/cm^2, mean ± SD, determined previously under the same conditions at the same workplace and published, read-out: EC50 (nM) HeLa

| SMILES | ΦF, fluorescence quantum yield [2] | aggregation / monomeric state [3] | ΦΔ, quantum yield of singlet oxygen production [4] | EC50 [5, 16] | Interaction with BSA: disaggregation/monomerization and changes in absorption and fluorescence emission spectra [6] | ε, extinction coefficient [8] | λA, absorption maximum in the Q-band [8] | λF, fluorescence emission maximum [8] | Log P [10] | EC50 [11] | ΦF, fluorescence quantum yield of nonionized analogue [12] | ΦΔ, quantum yield of singlet oxygen production of nonionized analogue [13] | EC50 [15] | other results |
| --- | --- | --- | --- | --- | --- | --- | --- | --- | --- | --- | --- | --- | --- | --- |
| O=C([O-])c1cc(C(=O)[O-])cc(-c2cc3c(cc2-c2cc(C(=O)[O-])cc(C(=O)[O-])c2)C2=Nc4c5ccccc5c5[n]4[Zn][n]4c(c6ccccc6c4=NC3=N2)=NC2=NC(=N5)c3ccccc32)c1.[Na+].[Na+].[Na+].[Na+] [A2Zn] | 0.02 | aggregated in water | 0.22 | 410 ± 156 nM | partial | 152 090 M^–1cm^–1 | 677 nm | 688 nm | –2.42 | 584 ± 88 nM | – | – | – | τF1, fluorescence lifetime (relative amplitude in brackets) [1]: 0.23 (16%) ns; τF2, fluorescence lifetime (relative amplitude in brackets) [1]: 2.66 (84%) ns; EC50 [7]: 700 ± 50 nM; fold higher photodynamic activity vs symmetrical hydrophilic counterparts [9]: 25 and ~21 |
| O=C(O)c1cc(Oc2cc3c(cc2Oc2cc(C(=O)O)cc(C(=O)O)c2)C2=Nc4c5cc(Oc6cc(C(=O)O)cc(C(=O)O)c6)c(Oc6cc(C(=O)O)cc(C(=O)O)c6)cc5c5[n]4[Zn][n]4c(c6cc(Oc7cc(C(=O)O)cc(C(=O)O)c7)c(Oc7cc(C(=O)O)cc(C(=O)O)c7)cc6c4=NC4=NC(=N5)c5cc(Oc6cc(C(=O)O)cc(C(=O)O)c6)c(Oc6cc(C(=O)O)cc(C(=O)O)c6)cc54)=NC3=N2)cc(C(=O)O)c1 [A3Zn(COOH)] | – | – | – | – | – | – | – | – | – | – | 0.19 | 0.42 | – | – |
| O=C([O-])c1cc(Oc2cc3c(cc2Oc2cc(C(=O)[O-])cc(C(=O)[O-])c2)C2=Nc4c5cc(Oc6cc(C(=O)[O-])cc(C(=O)[O-])c6)c(Oc6cc(C(=O)[O-])cc(C(=O)[O-])c6)cc5c5[n]4[Zn][n]4c(c6cc(Oc7cc(C(=O)[O-])cc(C(=O)[O-])c7)c(Oc7cc(C(=O)[O-])cc(C(=O)[O-])c7)cc6c4=NC4=NC(=N5)c5cc(Oc6cc(C(=O)[O-])cc(C(=O)[O-])c6)c(Oc6cc(C(=O)[O-])cc(C(=O)[O-])c6)cc54)=NC3=N2)cc(C(=O)[O-])c1.[Na+].[Na+].[Na+].[Na+].[Na+].[Na+].[Na+].[Na+].[Na+].[Na+].[Na+].[Na+].[Na+].[Na+].[Na+].[Na+] [A3Zn] | 0.03 | – | 0.24 | 5160 ± 1030 nM | slight bathochromic shift in the Q-band accompanied by partial quenching of the excited states | 172 640 M^–1cm^–1 | 677 nm | 688 nm | –2.88 | 3470 ± 670 nM | 0.19 | 0.42 | – | quenching of excited states upon BSA addition (decrease in Q-band maximum and fluorescence intensity) [6]: negligible |
| O=C(O)c1cc(C(=O)O)cc(-c2cc3c(cc2-c2cc(C(=O)O)cc(C(=O)O)c2)C2=Nc4c5cc(-c6cc(C(=O)O)cc(C(=O)O)c6)c(-c6cc(C(=O)O)cc(C(=O)O)c6)cc5c5[n]4[Zn][n]4c(c6cc(-c7cc(C(=O)O)cc(C(=O)O)c7)c(-c7cc(C(=O)O)cc(C(=O)O)c7)cc6c4=NC4=NC(=N5)c5cc(-c6cc(C(=O)O)cc(C(=O)O)c6)c(-c6cc(C(=O)O)cc(C(=O)O)c6)cc54)=NC3=N2)c1 [A4Zn(COOH)] | – | – | – | – | – | – | – | – | – | – | 0.12 | 0.45 | – | – |
| O=C([O-])c1cc(C(=O)[O-])cc(-c2cc3c(cc2-c2cc(C(=O)[O-])cc(C(=O)[O-])c2)C2=Nc4c5cc(-c6cc(C(=O)[O-])cc(C(=O)[O-])c6)c(-c6cc(C(=O)[O-])cc(C(=O)[O-])c6)cc5c5[n]4[Zn][n]4c(c6cc(-c7cc(C(=O)[O-])cc(C(=O)[O-])c7)c(-c7cc(C(=O)[O-])cc(C(=O)[O-])c7)cc6c4=NC4=NC(=N5)c5cc(-c6cc(C(=O)[O-])cc(C(=O)[O-])c6)c(-c6cc(C(=O)[O-])cc(C(=O)[O-])c6)cc54)=NC3=N2)c1.[Na+].[Na+].[Na+].[Na+].[Na+].[Na+].[Na+].[Na+].[Na+].[Na+].[Na+].[Na+].[Na+].[Na+].[Na+].[Na+] [A4Zn] | 0.01 | monomeric in water | – | – | slight bathochromic shift in the Q-band accompanied by partial quenching of the excited states | 168 630 M^–1cm^–1 | 694 nm | 708 nm | –3.32 | 5090 ± 1240 nM | 0.12 | 0.45 (0.45) ^b | – | EC50 ([5]; same irradiation conditions, previously published per Table 2, read-out: EC50 (HeLa)): 10300 nM; quenching of excited states upon BSA addition (decrease in Q-band maximum and fluorescence intensity) [6]: negligible |
| CC[N+](CC)(CC)CCSc1cc2c(cc1SCC[N+](CC)(CC)CC)C1=Nc3c4cc(SCC[N+](CC)(CC)CC)c(SCC[N+](CC)(CC)CC)cc4c4[n]3[Zn][n]3c(c5cc(SCC[N+](CC)(CC)CC)c(SCC[N+](CC)(CC)CC)cc5c3=NC3=NC(=N4)c4cc(SCC[N+](CC)(CC)CC)c(SCC[N+](CC)(CC)CC)cc43)=NC2=N1.[I-].[I-].[I-].[I-].[I-].[I-].[I-].[I-] [C8Zn] | 0.29 | did not sufficiently suppress aggregation | 0.63 | 540 ± 90 nM | – | 281 600 M^–1cm^–1 | 704 nm | 714 nm | –1.59 | – | – | – | 320 ± 48 nM | EC50 [14]: 280 ± 40 nM |
| Cc1cc(OCc2cn(CCOCCOCCO)nn2)c(Oc2cc3c(cc2Oc2c(OCc4cn(CCOCCOCCO)nn4)cc(C)cc2OCc2cn(CCOCCOCCO)nn2)C2=Nc4c5ccccc5c5[n]4[Zn][n]4c(c6ccccc6c4=NC3=N2)=NC2=NC(=N5)c3ccccc32)c(OCc2cn(CCOCCOCCO)nn2)c1 [N3Zn] | 0.28 | – | 0.48 | 2200 ± 160 nM | – | 280 340 M^–1cm^–1 | 672 nm | 681 nm | 1.90 | 1500 ± 300 nM | – | – | 900 ± 200 nM | – |
| Cc1cc(OCc2cn(CCO[C@@H]3O[C@H](CO)[C@@H](O)[C@H](O)[C@H]3O)nn2)c(Oc2cc3c(cc2Oc2c(OCc4cn(CCO[C@@H]5O[C@H](CO)[C@@H](O)[C@H](O)[C@H]5O)nn4)cc(C)cc2OCc2cn(CCO[C@@H]4O[C@H](CO)[C@@H](O)[C@H](O)[C@H]4O)nn2)C2=Nc4c5ccccc5c5[n]4[Zn][n]4c(c6ccccc6c4=NC3=N2)=NC2=NC(=N5)c3ccccc32)c(OCc2cn(CCO[C@@H]3O[C@H](CO)[C@@H](O)[C@H](O)[C@H]3O)nn2)c1 [N4Zn] | 0.29 | – | 0.59 | 2070 ± 60 nM | – | 293 750 M^–1cm^–1 | 672 nm | 681 nm | –0.65 | 1200 ± 100 nM | – | – | 500 ± 100 nM | – |
| [Zn+2].c1ccc2c(c1)-c1nc-2nc2[n-]c(nc3nc([n-]c4nc(n1)-c1ccccc1-4)-c1ccccc1-3)c1ccccc21 [ZnPc, unsubstituted zinc(II) phthalocyanine, reference compound] | – | – | – | – | – | – | – | – | – | – | – | – | – | ΦF of the reference standard ([12]; in THF, ref number not given): 0.32; ΦΔ of the reference standard ([13]; in DMF, ref number not given): 0.56 |
